Converted amounts (≈) assume the structure as drawn. “And” between values parts separate entries of the source, which are not always exact repeats. Equal values may be shown once. Read-outs that look alike come from different tables or passages of the source. Each block holds one compound with its values, some of them ahead of it.
Assays:
[1] = Dissolution of drug or cocrystal in biorelevant media (FaSSIF, FeSSIF); format: physicochemical; conditions: for Cmax / AUC (area under the dissolution curve): 25 °C; for Cmax: 150 rpm, 3 h, 300 mg dose in 250 mL equivalent; for AUC (area under the dissolution curve): up to 180 min; for Final pH: after dissolution
Description: (§1) Blank FaSSIF (pH 6.50 phosphate buffer) was prepared at room temperature by dissolving 0.683 g of NaOH (pellets), 7.902 g of NaH2PO4·H2O, and 12.372 g NaCl in 2 L of purified deionized (DI) water. The pH was adjusted to 6.50 (±0.04) with 1 M NaOH and 1 M HCl solutions. Blank FeSSIF (pH 5.00 acetate buffer) was prepared at room temperature by dissolving 8.089 g NaOH (pellets), 16.4 mL acetic acid, and 23.748 g NaCl in 2 L of purified DI water. The pH was adjusted to 5.00 (±0.03) with 1 M NaOH and 1 M HCl solutions. FaSSIF and FeSSIF media were prepared by dissolving appropriate amounts of FaSSIF/FeSSIF powder in the blank media according to the manufacturer, then stored at room temperature and used within 48 hours. Blank FaSSGF (pH 1.60 buffer) was prepared at room temperature by dissolving 1.999 g of sodium chloride in 1 L of DI water. The pH was adjusted to 1.60 (±0.05) with 2 M HCl solution.
Dissolution studies of drug or cocrystal were conducted using an overhead stirrer with a glass propeller at 150 rpm over three hours. Based on a 300 mg dose in 250 mL, 36 mg of PSZ drug or 46.6 mg PSZ-4ABA cocrystal (molar equivalent PSZ amount) were added to 30 mL of dissolution media. Dissolution studies were done in FaSSIF and FeSSIF with sieved fractions of drug and cocrystals in a particle size range of 106 to 125 μm. The dissolution experiments were conducted in a water bath at 25.0 (±0.5) ° C. Initial and final solution pH was measured. Aliquots of 0.5 mL were taken with a syringe at time points up to 180 minutes. The solution samples were filtered through syringe filter with PvDF membrane of a pore size of 0.45 μm. The solution concentrations of drug and coformer were analyzed with a Waters HPLC equipped with a photodiode array UV detector. A Waters Atlantis C18 column with the dimension of 5 μm, 250×4.6 mm was used for separation. A gradient method using methanol and water with 0.1% trifluoroacetic acid was run with the flow rate set at 1 mL/min. […] The wavelengths used for the analytes were […] for PSZ, and 287 nm for 4ABA.

[2] = cited from earlier work
[3] = Cocrystal eutectic constant (Keu): coformer and drug concentrations at the eutectic point in buffers and biorelevant media; format: physicochemical; conditions: for solubility: thermodynamic from solid, read-out: [PSZ]eu (also solubility of drug at equilibrium); for solubility / Keu ([coformer]eu/[drug]eu) / [4ABA]eu (coformer concentration at the eutectic point): 25 °C
Description: as §1
Cocrystal eutectic constant (Keu), which is well recognized as a key stability and solubility indicator, was determined from measurement of coformer and drug concentrations at the eutectic point, where drug and cocrystal solid phases are in equilibrium with solution according to Keu=[coformer]eu/[drug]eu. An excess amount of PSZ (approximately 200 mg) and 150 mg of PSZ-4ABA were suspended in 3 mL of blank FaSSGF, blank FaSSIF, blank FeSSIF, FaSSIF, or FeSSIF media. Biorelevant media included FaSSIF and FeSSIF. Blank media was the buffer solution in the biorelevant media without the lecithin and bile salt. The suspensions were kept in a water bath at 25.0±0.1° C. and magnetically stirred for up to 72-96 hours. Sample solutions were filtered through 0.45 μm cellulose acetate filters and analyzed by HPLC. The pH was measured and the equilibrium solids were characterized by DSC and PXRD.
Keu is proportional to the cocrystal solubility advantage over drug (SA=Scc/Sdrug), and for a 2:3 cocrystal is given by
[formula] […] Scc is lower than Sdrug when Keu is lower than 1.5. See is equal to Sdrug when Keu is equal to 1.5. The higher the Keu value, the higher is the cocrystal solubility advantage over drug (SA) and Scc.

[4] = in vivo; cited from earlier work

Compound: CC[C@@H]([C@H](C)O)n1ncn(-c2ccc(N3CCN(c4ccc(OC[C@@H]5CO[C@@](Cn6cncn6)(c6ccc(F)cc6F)C5)cc4)CC3)cc2)c1=O [PSZ, Posaconazole]
Cmax ([1]; FaSSIF): 4.5 ± 0.2 µM
AUC (area under the dissolution curve) ([1]; FaSSIF): 745 ± 18 µM·min
Final pH ([1]; FaSSIF): 6.58 ± 0.01
Cmax ([1]; FeSSIF): 7 ± 3 µM
AUC (area under the dissolution curve) ([1]; FeSSIF): 1190 ± 104 µM·min
Final pH ([1]; FeSSIF): 4.95 ± 0.01
Log P [2]: 4.6
aqueous solubility [2]: < 1 µg/mL
solubility ([3]; aqueous buffer, Blank FaSSIF, final pH 5.12): 0.1 ± 0.04 µM (≈ 0.0701 µg/mL)
solubility ([3]; aqueous buffer, Blank FeSSIF, final pH 5.11): 0.12 ± 0.02 µM (≈ 0.0841 µg/mL)
solubility ([3]; simulated gastric fluid, Blank FaSSGF, final pH 1.94): 83 ± 4 µM (≈ 58.2 µg/mL)
solubility ([3]; FaSSIF, final pH 5.07): 3.6 ± 0.8 µM (≈ 2.52 µg/mL)
solubility ([3]; FeSSIF, final pH 5.03): 18 ± 5 µM (≈ 12.6 µg/mL)
fraction absorbed [4]: < 30%

RAUC (AUCPSZ-4ABA/AUCPSZ) ([1]; FaSSIF): 4.1 and 4.1 ± 0.3
Cmax ([1]; FaSSIF): 48 ± 4 µM
AUC (area under the dissolution curve) ([1]; FaSSIF): 3052 ± 209 µM·min
Final pH ([1]; FaSSIF): 6.37 ± 0.01
RAUC (AUCPSZ-4ABA/AUCPSZ) ([1]; FeSSIF): 13 and 13 ± 4
Cmax ([1]; FeSSIF): 148 ± 3 µM
AUC (area under the dissolution curve) ([1]; FeSSIF): 15,670 ± 4612 μM × min
Final pH ([1]; FeSSIF): 5.01 ± 0.01
Keu ([coformer]eu/[drug]eu) ([3]; Blank FaSSGF, final pH 1.94): 0.0028 ± 0.0002 ×10^5
[4ABA]eu (coformer concentration at the eutectic point) ([3]; Blank FaSSGF, final pH 1.94): 27.3 ± 0.4 mM
Final pH (pH at equilibrium) ([3]; Blank FaSSGF, initial pH 1.60): 1.94 ± 0.01
Keu ([coformer]eu/[drug]eu) ([3]; Blank FaSSIF, final pH 5.12): 1.7 ± 0.6 ×10^5
[4ABA]eu (coformer concentration at the eutectic point) ([3]; Blank FaSSIF, final pH 5.12): 17.4 ± 0.1 mM
Final pH (pH at equilibrium) ([3]; Blank FaSSIF, initial pH 6.55): 5.12 ± 0.03
Keu ([coformer]eu/[drug]eu) ([3]; Blank FeSSIF, final pH 5.11): 1.2 ± 0.3 ×10^5
[4ABA]eu (coformer concentration at the eutectic point) ([3]; Blank FeSSIF, final pH 5.11): 14.5 ± 0.2 mM
Final pH (pH at equilibrium) ([3]; Blank FeSSIF, initial pH 5.03): 5.11 ± 0.01
Keu ([coformer]eu/[drug]eu) ([3]; FaSSIF, final pH 5.07): 0.06 ± 0.01 ×10^5
[4ABA]eu (coformer concentration at the eutectic point) ([3]; FaSSIF, final pH 5.07): 20.2 ± 0.4 mM
Final pH (pH at equilibrium) ([3]; FaSSIF, initial pH 6.50): 5.07 ± 0.04
Keu ([coformer]eu/[drug]eu) ([3]; FeSSIF, final pH 5.03): 0.010 ± 0.003 ×10^5
[4ABA]eu (coformer concentration at the eutectic point) ([3]; FeSSIF, final pH 5.03): 17.3 ± 0.5 mM
Final pH (pH at equilibrium) ([3]; FeSSIF, initial pH 5.03): 5.03 ± 0.14
decrease of Sco (cocrystal solubility) with pH ([3]; pH increases from 1.9 to 5.1): 20 times
Compound: CCC(C(C)O)n1ncn(-c2ccc(N3CCN(c4ccc(OCC5COC(Cn6cncn6)(c6ccc(F)cc6F)C5)cc4)CC3)cc2)c1=O.CCC(C(C)O)n1ncn(-c2ccc(N3CCN(c4ccc(OCC5COC(Cn6cncn6)(c6ccc(F)cc6F)C5)cc4)CC3)cc2)c1=O.Nc1ccc(C(=O)O)cc1.Nc1ccc(C(=O)O)cc1.Nc1ccc(C(=O)O)cc1 (centres unmarked) [PSZ-4ABA, posaconazole-4-aminobenzoic acid (PSZ-4ABA) cocrystal]

From patent publication US12435069B2, “Cocrystals of posaconazole, methods of making and using same” (REGENTS OF THE UNIVERSITY OF MICHIGAN, priority 2019, dated 2025)
